The source of these data is patent publication US12702654B2, “Compositions and methods for treating homocystinuria and other conditions using polyamines” (THE REGENTS OF THE UNIVERSITY OF COLORADO, priority 2020, dated 2026).

“Also recorded” adds a separate entry of the source. Like-named read-outs stand apart in the source and are kept apart here.

One assay relates to SAHH. Kind of assay: Western blotting of hepatic SAHH expression. The class given is in vivo, mouse. Particulars: HO mice, 30 g/l in drinking water ad libitum, one week. On the procedure: (§1) To investigate the effects of these treatments upon the hepatic regulatory changes in enzyme expression induced by HCU, the human transgenic HO mouse model of HCU was used. In brief, experimental groups consisting of 8 HO mice on a C57BL/6J background and 8 C57BL/6J WT littermate control mice bred in house were used. Mice in both groups were male and aged between 3 and 4 months. Except where otherwise stated, all mice were maintained on standard chow. All diets were administered using a paired-feeding design to ensure isocaloric intake between all experimental groups and body weights were measured once per week. There was no significant difference in body weight between mice in any of the experimental groups. Betaine and taurine were in this example, both administered by dissolving these compounds in drinking water at 30 g/l ([…] 3% w/v) and were supplied ad libitum for one week. Treatment water was replenished twice per week.
Western blotting analysis of SAHH, MTHFR and SHMT2 expression was performed in liver samples from HO mice in the presence and absence of betaine or taurine treatment.
(In general: A western blot detects proteins with antibodies after separation by electrophoresis.)

Assay [1] relates to HO HCU mice. As to the kind of experiment: Tail bleeding time / hypercoagulative phenotype in HO HCU mice. The format is in vivo, mouse. As to the method:
In another exemplary method, effect of polyamines (e.g. spermidine and spermine) on the hypercoagulative phenotype induced by HCU was assessed which is a measure of treatment for genetic HCU where rapid coagulation is a side effect of these conditions. In brief, mice containing both the human CBS transgene and no functional copy of the mouse equivalent gene were identified by PCR from the litters of progeny of 11181×MKO^+/− F1 mice backcrossed to MKO^+/− mice. These mice were designated as “human only” (HO) mice and used as a human model of HCU. […] In order to further investigate the possible therapeutic potential of polyamine (e.g. spermidine and spermine) therapy in HCU, WT and HO HCU mice were given either: […]; […] in drinking water given ad libitum; or drinking water (untreated, control). After one week, tail bleeding times were determined for untreated wild type (WT) control B6 mice and HO HCU mice from all treatment groups.

The subject of assay [2] is HO HCU mice. Kind of assay: Hepatic polyamines and MTA by LC-tandem MS in HO HCU mice. The class given is in vivo, mouse. As to the method:
A comparative reference data set was generated for these mice by examining plasma levels of tHcy, methionine, cysteine, serine, glycine, dimethylglycine, methylglycine (MG, SAM and SAH). In brief, determination of plasma levels of amino acids relevant to the methionine cycle were determined using methods similar to those described in Stabler et al., Blood. 81 (1993) 3404-3413, incorporated in its entirety herein. […] The global metabolomic analysis of methionine and folate cycle related metabolites was carried out by Metabolon, Inc. Briefly, sample preparation was performed utilizing the automated MicroLab STAR® system. Sample preparation was performed using a proprietary series of organic and aqueous extractions to remove the protein fraction while allowing maximum recovery of small molecules. The resulting extract was divided into two fractions: one for analysis by liquid chromatography and one for analysis by gas chromatography. Each sample was then frozen and dried under vacuum. The LC/mass spectrometer portion of the platform was based on a Waters ACQUITY UPLC and a Thermo-Finnigan LTQ mass spectrometer, which consisted of an electrospray ionization source and linear ion-trap mass analyzer. Samples were analyzed on a Thermo-Finnigan Trace DSQ fast-scanning single-quadrupole mass spectrometer using electron impact ionization. Identification of known chemical entities was based on comparison to library entries of authenticated standards. Tissue polyamines putrescine, spermidine and spermine and 5-methylthioadenosine (MTA) were determined by liquid chromatography-tandem mass spectrometry using methods similar to those described in Stevens et al., J Chromatogr A 1217 (2010) 3282-3288, incorporated in its entirety herein.

The test system of another assay is GNMT. Kind of assay: Western blotting of hepatic GNMT expression. The format is in vivo, mouse. As to conditions: HO HCU mice, 30 g/l in drinking water ad libitum, one week. As to the method: as §1
These observations are the first to report betaine and taurine acting to regulate expression of these processes. Therefore, this observation supports that taurine alone or in combination with betaine and other treatments for genetic homocystinuria are viable options for avoiding dietary restraints and treating these conditions.

Assay [3] deals with HO HCU mice. Particulars: earlier study, cited from earlier work.
Assay [4] relates to HO HCU mice. As to the kind of experiment: Plasma metabolite levels (tHcy, methionine cycle amino acids, SAM, SAH) in HO HCU mice. The format is in vivo, mouse. Particulars: long-term betaine treatment, no methionine-restriction.
Assay [5] deals with pro-inflammatory cytokines (TNF-α, IL-1β). As to the kind of experiment: Pro-inflammatory cytokine expression in HO HCU mice. The class given is in vivo, mouse.
Setting [6] is: HO HCU mice, one week of betaine treatment.
Setting [7] is: HO HCU mice, prolonged betaine treatment.

Turning to `C[N+](C)(C)CC(=O)O` [betaine, N,N,N-trimethylglycine], the “HCU-mediated induction of hepatic SAHH expression” value in the assay on SAHH is given as “completely reversed”. Moreover, the hypercoagulative phenotype result in the assay on HO HCU mice [1] (betaine treatment (one week)) was “significant amelioration of the hypercoagulative phenotype; also recorded: responded to betaine treatment”. Also, in the assay with HO HCU mice [1] (prolonged betaine treatment), the coagulation phenotype result is recorded as “reversion to a hypercoagulative phenotype”. Also, the “hepatic levels of putrescine” value with HO HCU mice [2] (HO HCU mice ± betaine vs WT, n=8 per group, data not shown) is listed as “no statistical difference”. In the assay with HO HCU mice [2] (setting [6]), the hepatic spermidine result is recorded as “normalized relative to WT mice” and the hepatic spermine result is recorded as “normalized relative to WT mice”. Besides, the “hepatic MTA levels compared to untreated HO HCU mice” value in the assay on HO HCU mice [2] (HO HCU mice, one week of betaine treatment, p<0.001) was “approximate doubling”. For the same compound, the “hepatic GNMT expression” value in the assay with GNMT is recorded as “induced expression”. Further, the “hypercoagulative phenotype after a longer period of treatment” value with HO HCU mice [3] (HCU mice, longer period of betaine treatment) is “return to the hypercoagulative phenotype”. In addition, the hypercoagulative phenotype result with HO HCU mice [3] (mouse model of HCU, betaine treatment) is “significantly ameliorated the hypercoagulative phenotype”. In addition, in the assay on HO HCU mice [4], the “ability of betaine treatment to lower homocysteine” value is on record as “diminished significantly over time”. In assay [5] (setting [7]), the “plasma levels of IL-1β” value is reported as “significant increase” and the “plasma levels of TNF-α” value was “significant increase”. The pro-inflammatory cytokine expression entry in assay [5] (HO model, one week of betaine treatment) is given as “virtual ablation of most of the pro-inflammatory cytokine expression; also recorded: decrease pro-inflammatory cytokine expression”.
